Reference: US10100011B2, “Pentadienoyl piperidine derivative and use thereof” (Industry-Academic Cooperation Foundation, Yonsei University, priority 2014, dated 2018)

Tested on: C57BL/6J mice
Assay: Oral glucose tolerance test, fasting blood glucose and insulin in mice fed high-fat diet
Type: in vivo, mouse
Procedure: An obesity induction diet used in this experiment was a high-fat diet (HFD: 40% fat calories, 17 g of lard+3% corn oil/100 g diet), and the compositions of diets including the LJ-2501, LJ-2488, LJ-2495, LJ-2496 compounds were identical to that of HFD, except that each of the compounds was included in an amount of about 0.05% (Table 2). As a control drug, an anti-obesity drug, sibutramine (Sibut), was added in an amount of about 0.01% to the high-fat diet and a normal diet group (Chow) was fed with commercial rodent chow.
5-week old 40 male C57BL/6J mice (Orient Bio., Korea) were fed with hard feed and accommodated in a laboratory environment for one week. Subsequently, in accordance with a randomized block method, the mice were randomly grouped into a normal diet group, a high-fat diet control group, two experimental substance groups, and […] and raised for a total of 10 weeks (n=8/group). Diets were supplied with water between 10 am and 11 am every day. An intake amount was measured every day and the body weights of the mice were measured every week. To prevent temporal weight change due to feed intake, feedboxes were removed and, after two hours, the body weights were measured. The experimental animals were fasted for 12 hours or more and then anesthetized with diethyl ether, followed by collecting blood, liver, and visceral adipose tissues (epididymal fat, perirenal fat, mesenteric fat, and retroperitoneal fat). The collected samples were washed with 0.1 M phosphate buffered saline (pH 7.4) and then weighed. Blood samples collected from abdominal aortas were centrifuged at 1000×g for 15 minutes, thereby separating plasma.
The experimental animals were fasted for 18 hours after being raised eight weeks for experiment and orally administered d-glucose in an amount of 2 g/kg body weight. At 15 minutes, 30 minutes, 60 minutes, 120 minutes after the d-glucose administration, blood was collected from the tail veins of the mice. A glucose concentration in the collected blood was measured by means of a strip-operated blood glucose sensor (ONETOUCH Ultra, Inverness Medical Ltd. Stockport, UK).
A glucose concentration in plasma during fasting was measured by means of an automatic biochemical analyzer (Express Plus, Chiron Diagnostics Co., USA) and a kit reagent for analysis was purchased from Bayer (Tarrytown, N.Y., USA). An insulin concentration in plasma was measured using the Rat Insulin RIA kit (LINCO Research, Inc, St. Charles, USA).

In the case of `CSc1ccc(/C=C/C=C/C(=O)N2CCCCC2)cc1` [LJ-2501, (2E,4E)-5-(4-(methylthio)phenyl)-1-(piperine-1-yl)penta-2,4-diene-1-one], the “blood glucose concentrations after oral glucose compared to HFD (in words)” value (2 g/kg glucose orally, 15, 30, 60 and 120 minutes) is reported as “reduced in all time slots”, the “insulin resistance index (HOMA-IR), reduction compared to HFD” value (calculated from fasting glucose and insulin, 10 weeks) is reported as 61% and the “blood glucose concentration during fasting, reduction compared to HFD” value (compound in high-fat diet for 10 weeks) is reported as 20%. The “blood insulin concentration, reduction compared to HFD” value (compound in high-fat diet for 10 weeks, fasting) was 59% and the “area under the curve (AUC) of blood glucose concentration, reduction compared to HFD” value (oral glucose tolerance test, 2 g/kg glucose) was 35%.
